Target: T1, OfurOR27 (Ostrinia furnacalis, UniProt A0A0E4B5I0)
T1 construct: gene OR27; full-length ORF (402 amino acids); with OfurOrco (OfurOR2)
T1 sequence (A0A0E4B5I0 1-401): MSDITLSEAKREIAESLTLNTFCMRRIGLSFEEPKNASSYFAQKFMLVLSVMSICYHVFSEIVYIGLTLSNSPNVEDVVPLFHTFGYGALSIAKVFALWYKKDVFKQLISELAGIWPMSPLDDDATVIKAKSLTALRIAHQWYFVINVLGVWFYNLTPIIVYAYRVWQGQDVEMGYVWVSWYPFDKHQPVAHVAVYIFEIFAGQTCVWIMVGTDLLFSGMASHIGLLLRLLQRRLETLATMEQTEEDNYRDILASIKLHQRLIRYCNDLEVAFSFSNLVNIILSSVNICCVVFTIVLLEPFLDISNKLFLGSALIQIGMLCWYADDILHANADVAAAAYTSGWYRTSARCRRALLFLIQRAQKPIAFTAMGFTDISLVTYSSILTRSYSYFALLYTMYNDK
T1 sequence (A0A0E4B591 1-474 partner): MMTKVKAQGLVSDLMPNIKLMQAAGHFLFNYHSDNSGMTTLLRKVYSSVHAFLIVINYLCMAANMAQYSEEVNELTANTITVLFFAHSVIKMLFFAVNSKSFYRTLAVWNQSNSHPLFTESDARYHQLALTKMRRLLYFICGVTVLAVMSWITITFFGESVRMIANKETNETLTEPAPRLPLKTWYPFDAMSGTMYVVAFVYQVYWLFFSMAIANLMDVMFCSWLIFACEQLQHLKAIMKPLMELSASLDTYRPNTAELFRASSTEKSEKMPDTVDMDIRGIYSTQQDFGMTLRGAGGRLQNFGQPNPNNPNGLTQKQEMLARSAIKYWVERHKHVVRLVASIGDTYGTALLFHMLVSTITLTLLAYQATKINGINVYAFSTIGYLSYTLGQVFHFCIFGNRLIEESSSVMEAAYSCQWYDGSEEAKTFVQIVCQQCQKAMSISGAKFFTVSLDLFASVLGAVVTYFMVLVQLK
Assay: two-electrode voltage clamp in Xenopus oocytes co-expressing OfurOR27/OfurOrco, dose-response
Type: cell-based

CCCCCCCCC=O [nonanal]
EC50: 367 nM

CCCCCCCC=O [octanal]
EC50: 1180 nM

CCCCCCCCO [1-octanol]
EC50: 14100 nM
